Measurements reported in ChEMBL document CHEMBL5465560, “Selectivity Literature for EUbOPEN Chemogenomic Library” (2024).

Assays:
[1] = biological target: Cyclin-dependent kinase 9 (Homo sapiens, UniProt P50750); experiment: Selectivity interaction (KinomeScan (DiscoverX)) EUB0000229b CDK9; details: at 10 µM
[2] = biological target: RAC-beta serine/threonine-protein kinase (Homo sapiens) (UniProt P31751); details: at 10 µM
[3] = biological target: Serine/threonine-protein kinase PRP4 homolog (Homo sapiens) (UniProt Q13523); experiment: Selectivity interaction (ActivX KiNativ screen (kinase selectivity in THP-1 cell lysates)) EUB0000639a PRPF4; type: subcellular; details: lysate, at 5 µM
[4] = biological target: T1, cGMP-dependent protein kinase 2 (Homo sapiens) (UniProt Q13237); experiment: Selectivity interaction (Ambit KINOMEscan and KiNATiv profiling in Jurkat cells) EUB0000090b PRKG2; type: cell-based; details: at 1 µM
T1 sequence (whole entry): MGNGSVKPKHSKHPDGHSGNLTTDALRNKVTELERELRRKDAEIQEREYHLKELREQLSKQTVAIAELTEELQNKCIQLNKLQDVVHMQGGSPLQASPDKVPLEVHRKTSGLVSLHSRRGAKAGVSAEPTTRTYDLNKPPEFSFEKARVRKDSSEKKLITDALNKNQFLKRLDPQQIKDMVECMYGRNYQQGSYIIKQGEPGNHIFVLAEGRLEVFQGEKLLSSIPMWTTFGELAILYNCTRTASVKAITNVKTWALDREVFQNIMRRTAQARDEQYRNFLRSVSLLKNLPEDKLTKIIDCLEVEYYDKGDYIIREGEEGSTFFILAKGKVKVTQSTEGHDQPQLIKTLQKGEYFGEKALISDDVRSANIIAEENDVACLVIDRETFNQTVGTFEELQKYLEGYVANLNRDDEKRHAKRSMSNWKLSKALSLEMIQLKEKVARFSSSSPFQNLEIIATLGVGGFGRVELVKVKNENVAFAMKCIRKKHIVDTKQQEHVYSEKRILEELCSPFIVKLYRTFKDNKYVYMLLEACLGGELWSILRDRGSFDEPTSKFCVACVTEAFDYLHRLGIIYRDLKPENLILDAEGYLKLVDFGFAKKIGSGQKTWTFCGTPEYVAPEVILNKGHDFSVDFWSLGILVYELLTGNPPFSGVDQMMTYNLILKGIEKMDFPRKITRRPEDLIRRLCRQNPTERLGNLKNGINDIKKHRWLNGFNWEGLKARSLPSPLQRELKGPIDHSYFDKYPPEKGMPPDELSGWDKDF

[5] = biological target: T2, Homeodomain-interacting protein kinase 4 (Homo sapiens) (UniProt Q8NE63); experiment: Selectivity interaction (Ambit KINOMEscan and KiNATiv profiling in Jurkat cells) EUB0000090b HIPK4; type: cell-based; details: at 1 µM
T2 sequence (whole entry): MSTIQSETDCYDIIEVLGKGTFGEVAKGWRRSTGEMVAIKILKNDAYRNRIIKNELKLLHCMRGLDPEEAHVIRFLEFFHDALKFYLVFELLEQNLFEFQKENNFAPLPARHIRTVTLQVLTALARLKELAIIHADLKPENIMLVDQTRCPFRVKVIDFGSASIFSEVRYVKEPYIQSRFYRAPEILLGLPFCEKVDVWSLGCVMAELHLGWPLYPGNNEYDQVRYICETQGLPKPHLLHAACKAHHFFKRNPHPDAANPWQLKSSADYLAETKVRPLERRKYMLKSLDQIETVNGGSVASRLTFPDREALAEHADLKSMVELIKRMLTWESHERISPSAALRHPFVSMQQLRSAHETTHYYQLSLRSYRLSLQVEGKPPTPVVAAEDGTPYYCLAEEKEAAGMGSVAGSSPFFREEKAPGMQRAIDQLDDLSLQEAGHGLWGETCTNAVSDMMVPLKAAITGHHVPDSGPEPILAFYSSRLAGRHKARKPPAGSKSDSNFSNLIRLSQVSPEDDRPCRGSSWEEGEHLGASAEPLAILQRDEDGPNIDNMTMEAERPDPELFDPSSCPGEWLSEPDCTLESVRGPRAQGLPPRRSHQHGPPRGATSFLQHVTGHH

[6] = biological target: Tyrosine-protein kinase SYK (Homo sapiens, UniProt P43405); experiment: Selectivity interaction (KinomeScan (DiscoverX)) EUB0000045b SYK
[7] = biological target: Phosphatidylinositol 4,5-bisphosphate 3-kinase catalytic subunit gamma isoform (Homo sapiens) (UniProt P48736); experiment: Selectivity interaction (ActivX KiNativ screen (ex vivo kinase selectivity in human PBMCs)) EUB0001619a PIK3CG; type: cell-based; details: PBMC, at 1 µM
[8] = biological target: Myosin light chain kinase, smooth muscle (Homo sapiens, UniProt Q15746); experiment: Selectivity interaction (KinomeScan (DiscoverX)) EUB0001619a MYLK; details: at 1 µM
[9] = biological target: Hepatocyte growth factor-like protein (Homo sapiens) (UniProt P26927); experiment: Selectivity interaction (KinomeScan (DiscoverX)) EUB0000655a MST1; details: at 10 µM
[10] = system: Receptor-type tyrosine-protein kinase FLT3 (Homo sapiens), P36888 [UNDEFINED MUTATION]; experiment: Selectivity interaction (LanthaScreen Eu Kinase Binding Assay) EUB0001632a FLT3; details: at 10 µM
[11] = biological target: T3, Mitogen-activated protein kinase kinase kinase kinase 2 (Homo sapiens) (UniProt Q12851); experiment: Selectivity interaction (Kinase panel (Z-LYTE Assay)) EUB0001632a MAP4K2; details: at 10 µM
T3 sequence (whole entry): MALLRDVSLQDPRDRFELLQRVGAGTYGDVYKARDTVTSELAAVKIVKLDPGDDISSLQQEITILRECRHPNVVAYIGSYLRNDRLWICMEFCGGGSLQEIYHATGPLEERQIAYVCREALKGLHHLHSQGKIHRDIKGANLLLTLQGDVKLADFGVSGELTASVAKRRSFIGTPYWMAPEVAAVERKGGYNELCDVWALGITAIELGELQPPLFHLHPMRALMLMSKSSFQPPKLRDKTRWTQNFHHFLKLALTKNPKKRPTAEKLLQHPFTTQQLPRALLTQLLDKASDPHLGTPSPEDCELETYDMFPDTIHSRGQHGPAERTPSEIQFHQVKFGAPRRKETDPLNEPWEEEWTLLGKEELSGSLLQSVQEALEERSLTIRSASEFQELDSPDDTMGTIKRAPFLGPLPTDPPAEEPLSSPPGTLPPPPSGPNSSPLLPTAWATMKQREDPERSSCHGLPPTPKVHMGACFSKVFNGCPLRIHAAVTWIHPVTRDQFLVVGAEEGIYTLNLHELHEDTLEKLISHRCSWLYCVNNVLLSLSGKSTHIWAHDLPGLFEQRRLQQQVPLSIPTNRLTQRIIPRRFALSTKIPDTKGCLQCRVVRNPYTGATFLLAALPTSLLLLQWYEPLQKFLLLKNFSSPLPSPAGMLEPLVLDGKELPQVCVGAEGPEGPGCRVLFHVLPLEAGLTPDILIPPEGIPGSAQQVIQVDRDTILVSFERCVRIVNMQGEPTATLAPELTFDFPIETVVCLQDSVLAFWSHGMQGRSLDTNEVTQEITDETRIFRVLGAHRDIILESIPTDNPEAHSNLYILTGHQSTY

Chain of Serine/threonine-protein kinase PRP4 homolog (Homo sapiens) (Q13523 whole entry): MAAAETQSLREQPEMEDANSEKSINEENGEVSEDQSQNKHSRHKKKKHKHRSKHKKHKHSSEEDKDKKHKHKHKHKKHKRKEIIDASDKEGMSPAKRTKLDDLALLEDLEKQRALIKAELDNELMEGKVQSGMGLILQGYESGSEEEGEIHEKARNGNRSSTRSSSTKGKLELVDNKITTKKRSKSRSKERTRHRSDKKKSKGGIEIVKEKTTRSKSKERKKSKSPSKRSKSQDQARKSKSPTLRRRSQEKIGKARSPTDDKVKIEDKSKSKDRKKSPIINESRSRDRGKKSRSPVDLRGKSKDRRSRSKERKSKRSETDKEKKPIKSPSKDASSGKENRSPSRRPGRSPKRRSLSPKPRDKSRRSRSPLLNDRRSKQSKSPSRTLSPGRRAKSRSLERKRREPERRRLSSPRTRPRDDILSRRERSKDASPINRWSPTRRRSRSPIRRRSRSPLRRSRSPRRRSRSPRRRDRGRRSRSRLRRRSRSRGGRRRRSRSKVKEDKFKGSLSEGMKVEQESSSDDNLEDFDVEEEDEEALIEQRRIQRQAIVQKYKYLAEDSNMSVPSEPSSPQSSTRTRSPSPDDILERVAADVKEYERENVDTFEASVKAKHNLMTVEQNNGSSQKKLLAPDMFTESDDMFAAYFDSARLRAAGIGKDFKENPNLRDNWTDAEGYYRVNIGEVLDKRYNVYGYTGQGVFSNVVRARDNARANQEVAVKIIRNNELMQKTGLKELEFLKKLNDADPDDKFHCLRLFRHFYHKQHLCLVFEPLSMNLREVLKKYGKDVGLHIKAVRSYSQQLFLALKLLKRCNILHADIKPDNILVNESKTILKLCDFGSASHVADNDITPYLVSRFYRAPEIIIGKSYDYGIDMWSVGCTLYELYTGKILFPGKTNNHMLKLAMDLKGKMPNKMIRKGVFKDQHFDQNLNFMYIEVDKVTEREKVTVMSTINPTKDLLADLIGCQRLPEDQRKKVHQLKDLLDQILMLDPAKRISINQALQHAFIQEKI
Chain of Phosphatidylinositol 4,5-bisphosphate 3-kinase catalytic subunit gamma isoform (Homo sapiens) (P48736 whole entry, looked up, canonical isoform): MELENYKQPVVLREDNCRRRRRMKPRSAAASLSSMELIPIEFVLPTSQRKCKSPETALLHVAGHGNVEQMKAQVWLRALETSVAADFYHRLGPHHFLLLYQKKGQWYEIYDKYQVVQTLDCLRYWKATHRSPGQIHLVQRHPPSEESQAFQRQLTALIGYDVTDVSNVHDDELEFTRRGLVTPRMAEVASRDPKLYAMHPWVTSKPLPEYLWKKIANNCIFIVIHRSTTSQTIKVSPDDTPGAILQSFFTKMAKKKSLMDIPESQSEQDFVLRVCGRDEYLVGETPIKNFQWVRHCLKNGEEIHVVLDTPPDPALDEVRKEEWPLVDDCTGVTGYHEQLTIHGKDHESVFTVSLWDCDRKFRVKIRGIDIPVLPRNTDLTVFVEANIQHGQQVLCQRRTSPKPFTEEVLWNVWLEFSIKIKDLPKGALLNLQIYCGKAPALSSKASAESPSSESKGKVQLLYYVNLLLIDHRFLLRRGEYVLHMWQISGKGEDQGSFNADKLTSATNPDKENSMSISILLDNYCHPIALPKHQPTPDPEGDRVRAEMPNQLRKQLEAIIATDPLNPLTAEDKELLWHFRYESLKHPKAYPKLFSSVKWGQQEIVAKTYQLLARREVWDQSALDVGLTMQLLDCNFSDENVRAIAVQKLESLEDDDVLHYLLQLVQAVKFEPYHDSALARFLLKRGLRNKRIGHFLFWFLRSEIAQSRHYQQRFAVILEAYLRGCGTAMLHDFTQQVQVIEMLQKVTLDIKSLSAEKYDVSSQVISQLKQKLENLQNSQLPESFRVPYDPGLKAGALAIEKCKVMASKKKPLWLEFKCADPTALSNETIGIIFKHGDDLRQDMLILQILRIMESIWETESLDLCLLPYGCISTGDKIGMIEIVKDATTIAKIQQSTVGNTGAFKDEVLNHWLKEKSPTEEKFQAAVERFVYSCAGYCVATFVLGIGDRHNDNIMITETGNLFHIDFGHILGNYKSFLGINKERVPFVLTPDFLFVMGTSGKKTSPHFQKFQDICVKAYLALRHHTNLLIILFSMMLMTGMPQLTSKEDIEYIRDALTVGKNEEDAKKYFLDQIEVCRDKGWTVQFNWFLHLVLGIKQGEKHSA
Chain of RAC-beta serine/threonine-protein kinase (Homo sapiens) (P31751 whole entry): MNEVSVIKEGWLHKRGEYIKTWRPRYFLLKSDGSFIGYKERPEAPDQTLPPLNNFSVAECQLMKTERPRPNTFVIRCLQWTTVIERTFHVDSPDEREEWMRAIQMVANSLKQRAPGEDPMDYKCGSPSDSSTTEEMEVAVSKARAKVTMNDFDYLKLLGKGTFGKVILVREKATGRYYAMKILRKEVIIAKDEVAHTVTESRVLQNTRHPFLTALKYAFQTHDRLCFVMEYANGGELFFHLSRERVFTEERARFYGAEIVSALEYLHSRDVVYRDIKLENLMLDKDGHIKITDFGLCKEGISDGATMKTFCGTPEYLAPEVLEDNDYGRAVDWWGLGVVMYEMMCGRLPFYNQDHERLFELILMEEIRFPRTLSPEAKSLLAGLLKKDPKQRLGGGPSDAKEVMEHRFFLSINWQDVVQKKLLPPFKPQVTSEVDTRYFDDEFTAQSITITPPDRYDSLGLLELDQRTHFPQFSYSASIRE
Chain of Myosin light chain kinase, smooth muscle (Q15746 whole entry): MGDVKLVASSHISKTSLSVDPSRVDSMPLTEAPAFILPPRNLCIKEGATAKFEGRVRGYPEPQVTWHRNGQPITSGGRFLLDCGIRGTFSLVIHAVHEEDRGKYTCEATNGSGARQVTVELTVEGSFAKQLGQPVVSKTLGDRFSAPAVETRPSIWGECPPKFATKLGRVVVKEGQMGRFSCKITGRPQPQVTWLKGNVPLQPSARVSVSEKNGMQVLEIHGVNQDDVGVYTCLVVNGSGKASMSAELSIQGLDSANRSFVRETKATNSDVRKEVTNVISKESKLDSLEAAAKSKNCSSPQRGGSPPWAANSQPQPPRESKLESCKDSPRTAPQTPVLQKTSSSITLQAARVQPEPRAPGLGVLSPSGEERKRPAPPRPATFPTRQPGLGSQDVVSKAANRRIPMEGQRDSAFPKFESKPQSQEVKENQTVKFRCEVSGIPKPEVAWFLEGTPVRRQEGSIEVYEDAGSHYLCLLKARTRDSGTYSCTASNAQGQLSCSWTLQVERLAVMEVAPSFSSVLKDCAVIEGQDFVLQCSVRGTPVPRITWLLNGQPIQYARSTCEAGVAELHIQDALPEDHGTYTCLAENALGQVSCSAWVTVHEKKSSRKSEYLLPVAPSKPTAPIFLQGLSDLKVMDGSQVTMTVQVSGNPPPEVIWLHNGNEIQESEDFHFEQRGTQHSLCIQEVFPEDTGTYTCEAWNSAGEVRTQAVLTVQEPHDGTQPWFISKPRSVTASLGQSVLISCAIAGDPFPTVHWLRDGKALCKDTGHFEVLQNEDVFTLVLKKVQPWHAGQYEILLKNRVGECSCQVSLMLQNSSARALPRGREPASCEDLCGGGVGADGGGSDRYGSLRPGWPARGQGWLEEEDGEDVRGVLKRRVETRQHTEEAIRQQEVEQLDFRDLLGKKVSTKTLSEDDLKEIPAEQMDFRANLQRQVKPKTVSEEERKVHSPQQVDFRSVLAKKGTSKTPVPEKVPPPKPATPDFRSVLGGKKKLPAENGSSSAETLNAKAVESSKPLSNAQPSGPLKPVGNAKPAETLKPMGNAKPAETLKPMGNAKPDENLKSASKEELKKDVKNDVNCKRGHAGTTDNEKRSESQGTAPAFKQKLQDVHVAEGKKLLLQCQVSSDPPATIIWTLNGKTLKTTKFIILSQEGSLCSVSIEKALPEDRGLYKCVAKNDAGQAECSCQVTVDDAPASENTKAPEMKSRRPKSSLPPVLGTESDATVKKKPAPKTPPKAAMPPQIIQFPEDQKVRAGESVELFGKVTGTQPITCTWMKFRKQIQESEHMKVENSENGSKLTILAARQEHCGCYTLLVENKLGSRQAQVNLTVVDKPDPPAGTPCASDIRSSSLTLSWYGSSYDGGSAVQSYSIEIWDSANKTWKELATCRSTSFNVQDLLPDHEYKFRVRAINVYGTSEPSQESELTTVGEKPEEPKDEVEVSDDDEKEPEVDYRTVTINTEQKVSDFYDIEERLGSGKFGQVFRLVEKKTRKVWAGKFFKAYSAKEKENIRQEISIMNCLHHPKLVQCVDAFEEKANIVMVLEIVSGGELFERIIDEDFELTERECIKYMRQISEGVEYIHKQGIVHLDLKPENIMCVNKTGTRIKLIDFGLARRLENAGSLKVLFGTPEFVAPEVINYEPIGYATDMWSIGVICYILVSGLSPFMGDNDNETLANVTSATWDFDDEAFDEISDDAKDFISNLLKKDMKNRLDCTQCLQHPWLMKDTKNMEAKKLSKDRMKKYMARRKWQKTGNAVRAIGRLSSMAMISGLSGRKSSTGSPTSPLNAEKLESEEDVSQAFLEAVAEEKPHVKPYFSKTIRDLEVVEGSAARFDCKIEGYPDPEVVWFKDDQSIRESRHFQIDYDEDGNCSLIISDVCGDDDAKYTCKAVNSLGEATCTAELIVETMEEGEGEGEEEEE
Chain of Cyclin-dependent kinase 9 (P50750 whole entry): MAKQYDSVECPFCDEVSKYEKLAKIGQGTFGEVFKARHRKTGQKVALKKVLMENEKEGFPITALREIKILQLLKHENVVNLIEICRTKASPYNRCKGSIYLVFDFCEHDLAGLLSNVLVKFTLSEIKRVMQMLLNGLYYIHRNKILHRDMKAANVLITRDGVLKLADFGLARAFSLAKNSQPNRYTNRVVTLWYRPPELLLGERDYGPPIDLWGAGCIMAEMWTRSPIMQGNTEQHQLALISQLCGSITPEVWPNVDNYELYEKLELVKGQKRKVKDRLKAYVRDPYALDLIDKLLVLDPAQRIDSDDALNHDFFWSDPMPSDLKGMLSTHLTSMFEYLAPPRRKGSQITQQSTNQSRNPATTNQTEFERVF

COc1cc(N(C)c2ccnc3ccc(C(F)(F)F)cc23)cc(OC)c1OC
% binding [1]: 81%

CCN(CC)CCCCNc1ncc2cc(-c3cc(OC)cc(OC)c3)c(NC(=O)NC(C)(C)C)nc2n1
% of control [2]: 100%

CC[C@@H]1[C@H](F)C(=O)N[C@@H]1COc1nccc2cc(C(N)=O)c(OC)cc12 [ZIMLOVISERTIB]
% of inhibition [3]: 88.3%

CN(C)C/C=C/C(=O)Nc1ccc(C(=O)N2CCCC(Nc3ncc(Cl)c(-c4c[nH]c5ccccc45)n3)C2)cc1 (configuration not stated)
% of control [4]: 95% | % of control [5]: 47%

C=CC(=O)Nc1cc(-n2c(=O)ccc3cnc4ccc(-c5ccc(NS(C)(=O)=O)cc5)cc4c32)ccc1C
% of control ([6]; at 1 µM): 100% | % of control ([6]; at 10 µM): 96%

N#Cc1cccc(-c2c[nH]c3ncnc(N4CCOCC4)c23)c1
% of inhibition [7]: -6% | % of control [8]: 93%

CN(C)CCOc1ccc(-c2nc(-c3ccncc3)c(-c3ccc4c(c3)CC/C4=N\O)[nH]2)cc1
% of control [9]: 100%

Cn1cc(-n2cnc3c(NCc4nc5cc(Cl)c(Cl)cc5[nH]4)nc(N4CCOCC4)nc32)cn1
% of inhibition [10]: -1.89% | % of control [11]: -4.87%
